According to patent US20140094424A1, “MICROBICIDAL COMPOSITIONS AND METHODS OF PRODUCTION USE THEREOF” (priority 2011, published 2014):
Read-outs that look alike come from different tables or passages of the source.

How the values were obtained:
Ralstonia pickettii (AU) = format: cell-based
Method: (§1) The stock organisms were thawed and subbed prior to beginning the MBC test. Molds were subbed to SDA plates one week before, and the bacteria were subbed to TAT agar plates 24 hours prior to the start of the test. All plates were incubated at 32 degrees C.
Each bacterial organism was inoculated into 40 ml sterile saline in a centrifuge tube to create a density of MacFarland #1. Two serial dilutions of 1:100 were then made, resulting in 10^−2 and 10^−4 concentrations. Each dilution was vortexed before it was sampled, and sterile Eppendorf pipette tips were used to make each transfer. The 10^−4 dilution was spiral plated to yield the initial inoculum concentration.
(§2) MBC trays were set up with the prepared test reagent. Using a Matrix pipettor, 100 μl aliquots of reagent were distributed into the wells, diluting the amount of preservative from 100% to 10% increments, using unpreserved reagent as the diluent. In one row, 100% non-preserved reagent acted as a positive control and served as a benchmark for a full mat of growth. In well #12H, 100 μl unpreserved reagent was pipetted, and this well was not inoculated with organisms, as it served as the negative control. Once all of the trays were prepared, the prepared bacteria/mold suspensions were poured into the MBC inoculating trays. These were placed onto the reagent trays, and 0.01 ml inoculum was introduced into the 100 μl of reagent in each well.
(§3) This was done by dipping a sterile cotton swab into each well, and absorbing all of the liquid in the well. The swab was rolled onto a TAT agar plate ensuring that the entire swab touches the agar. Plates ware incubated at 32 degrees C. for 48 hours to 7 days, depending on the organism. Observations for growth were performed by a scoring matrix using + for a full mat, +/− for some growth, a numerical value for an actual colony count, and—for no growth.
(§4) Below are tables that contain the data obtained in Example 1. The MBC test is scored by (+) indicating a full grown mat of organisms, equivalent to the organisms in the unpreserved reagent. (+/−) indicates there is some kill evident disturbing that mat or bringing the quantities down to an almost countable level. An actual number is the actual number of colonies growing at that concentration of preservative. (−) indicates no growth found. The MBC trays were stored at room temperature for the entire test.
(§5) The materials and methods and analysis of the MBC test were the same as in Example 1.

[1] = test system: Aspergillus glaucus- DMO (Q); test: MBC (minimum bactericidal concentration) test in Wash NEXT reagent; format: cell-based; conditions: for total kill at % preservative (MBC): at 14 days
Method: as §1
For the molds, each organism was inoculated into 40 ml sterile saline in a centrifuge tube to create a density of MacFarland #5. Two serial dilutions of 1:100 were then made, resulting in 10^−2 and 10^−4 concentrations. Each dilution was vortexed before it was sampled, and sterile Eppendorf pipette tips were used to make each transfer. The 10^−4 dilution was spiral plated to yield the initial inoculum concentration.
as §2, §3, §4, §5

Cc1cc(NS(=O)(=O)c2ccc(N)cc2)no1 [Sulfamethoxazole, sulfamethoxazole]
MBC test growth score (Ralstonia pickettii (AU); 10% preservative, 8 hour): + | MBC test growth score (Ralstonia pickettii (AU); 10% preservative, 24 hour): + | MBC test growth score (Ralstonia pickettii (AU); 10% preservative, 48 hour): + | MBC test growth score (Ralstonia pickettii (AU); 10% preservative, 72 hour): + | MBC test growth score (Ralstonia pickettii (AU); 20% preservative, 8 hour): + | MBC test growth score (Ralstonia pickettii (AU); 20% preservative, 24 hour): + | MBC test growth score (Ralstonia pickettii (AU); 20% preservative, 48 hour): + | MBC test growth score (Ralstonia pickettii (AU); 20% preservative, 72 hour): + | MBC test growth score (Ralstonia pickettii (AU); 30% preservative, 8 hour): + | MBC test growth score (Ralstonia pickettii (AU); 30% preservative, 24 hour): + | MBC test growth score (Ralstonia pickettii (AU); 30% preservative, 48 hour): + | MBC test growth score (Ralstonia pickettii (AU); 30% preservative, 72 hour): + | MBC test growth score (Ralstonia pickettii (AU); 40% preservative, 8 hour): + | MBC test growth score (Ralstonia pickettii (AU); 40% preservative, 24 hour): + | MBC test growth score (Ralstonia pickettii (AU); 40% preservative, 48 hour): + | MBC test growth score (Ralstonia pickettii (AU); 40% preservative, 72 hour): + | MBC test growth score (Ralstonia pickettii (AU); 50% preservative, 8 hour): + | MBC test growth score (Ralstonia pickettii (AU); 50% preservative, 24 hour): + | MBC test growth score (Ralstonia pickettii (AU); 50% preservative, 48 hour): + | MBC test growth score (Ralstonia pickettii (AU); 50% preservative, 72 hour): + | MBC test growth score (Ralstonia pickettii (AU); 60% preservative, 8 hour): + | MBC test growth score (Ralstonia pickettii (AU); 60% preservative, 24 hour): + | MBC test growth score (Ralstonia pickettii (AU); 60% preservative, 48 hour): + | MBC test growth score (Ralstonia pickettii (AU); 60% preservative, 72 hour): + | MBC test growth score (Ralstonia pickettii (AU); 70% preservative, 8 hour): + | MBC test growth score (Ralstonia pickettii (AU); 70% preservative, 24 hour): + | MBC test growth score (Ralstonia pickettii (AU); 70% preservative, 48 hour): + | MBC test growth score (Ralstonia pickettii (AU); 70% preservative, 72 hour): + | MBC test growth score (Ralstonia pickettii (AU); 80% preservative, 8 hour): + | MBC test growth score (Ralstonia pickettii (AU); 80% preservative, 24 hour): + | MBC test growth score (Ralstonia pickettii (AU); 80% preservative, 48 hour): + | MBC test growth score (Ralstonia pickettii (AU); 80% preservative, 72 hour): + | MBC test growth score (Ralstonia pickettii (AU); 90% preservative, 8 hour): + | MBC test growth score (Ralstonia pickettii (AU); 90% preservative, 24 hour): + | MBC test growth score (Ralstonia pickettii (AU); 90% preservative, 48 hour): + | MBC test growth score (Ralstonia pickettii (AU); 90% preservative, 72 hour): + | MBC test growth score (Ralstonia pickettii (AU); 100% preservative, 8 hour): + | MBC test growth score (Ralstonia pickettii (AU); 100% preservative, 24 hour): + | MBC test growth score (Ralstonia pickettii (AU); 100% preservative, 48 hour): + | MBC test growth score (Ralstonia pickettii (AU); 100% preservative, 72 hour): + | total kill at % preservative (MBC) [1]: No kill @ 100%

[N-]=[N+]=[N-] [Sodium Azide, sodium azide]
MBC test growth score (Ralstonia pickettii (AU); 10% preservative, 8 hour): + | MBC test growth score (Ralstonia pickettii (AU); 10% preservative, 24 hour): + | MBC test growth score (Ralstonia pickettii (AU); 10% preservative, 48 hour): + | MBC test growth score (Ralstonia pickettii (AU); 10% preservative, 72 hour): + | MBC test growth score (Ralstonia pickettii (AU); 20% preservative, 8 hour): + | MBC test growth score (Ralstonia pickettii (AU); 20% preservative, 24 hour): + | MBC test growth score (Ralstonia pickettii (AU); 20% preservative, 48 hour): + | MBC test growth score (Ralstonia pickettii (AU); 20% preservative, 72 hour): +/− | MBC test growth score (Ralstonia pickettii (AU); 30% preservative, 8 hour): + | MBC test growth score (Ralstonia pickettii (AU); 30% preservative, 24 hour): + | MBC test growth score (Ralstonia pickettii (AU); 30% preservative, 48 hour): +/− | MBC test growth score (Ralstonia pickettii (AU); 30% preservative, 72 hour): +/− | MBC test growth score (Ralstonia pickettii (AU); 40% preservative, 8 hour): + | MBC test growth score (Ralstonia pickettii (AU); 40% preservative, 24 hour): + | MBC test growth score (Ralstonia pickettii (AU); 40% preservative, 48 hour): +/− | MBC test growth score (Ralstonia pickettii (AU); 40% preservative, 72 hour): +/− | MBC test growth score (Ralstonia pickettii (AU); 50% preservative, 8 hour): + | MBC test growth score (Ralstonia pickettii (AU); 50% preservative, 24 hour): + | MBC test growth score (Ralstonia pickettii (AU); 50% preservative, 48 hour): +/− | MBC test growth score (Ralstonia pickettii (AU); 50% preservative, 72 hour): +/− | MBC test growth score (Ralstonia pickettii (AU); 60% preservative, 8 hour): + | MBC test growth score (Ralstonia pickettii (AU); 60% preservative, 24 hour): + | MBC test growth score (Ralstonia pickettii (AU); 60% preservative, 48 hour): +/− | MBC test growth score (Ralstonia pickettii (AU); 60% preservative, 72 hour): 10 | MBC test growth score (Ralstonia pickettii (AU); 70% preservative, 8 hour): + | MBC test growth score (Ralstonia pickettii (AU); 70% preservative, 24 hour): + | MBC test growth score (Ralstonia pickettii (AU); 70% preservative, 48 hour): +/− | MBC test growth score (Ralstonia pickettii (AU); 70% preservative, 72 hour): 8 | MBC test growth score (Ralstonia pickettii (AU); 80% preservative, 8 hour): + | MBC test growth score (Ralstonia pickettii (AU); 80% preservative, 24 hour): +/− | MBC test growth score (Ralstonia pickettii (AU); 80% preservative, 48 hour): +/− | MBC test growth score (Ralstonia pickettii (AU); 80% preservative, 72 hour): 7 | MBC test growth score (Ralstonia pickettii (AU); 90% preservative, 8 hour): + | MBC test growth score (Ralstonia pickettii (AU); 90% preservative, 24 hour): +/− | MBC test growth score (Ralstonia pickettii (AU); 90% preservative, 48 hour): +/− | MBC test growth score (Ralstonia pickettii (AU); 90% preservative, 72 hour): 4 | MBC test growth score (Ralstonia pickettii (AU); 100% preservative, 8 hour): + | MBC test growth score (Ralstonia pickettii (AU); 100% preservative, 24 hour): +/− | MBC test growth score (Ralstonia pickettii (AU); 100% preservative, 48 hour): +/− | MBC test growth score (Ralstonia pickettii (AU); 100% preservative, 72 hour): 2 | total kill at % preservative (MBC) (Ralstonia pickettii (AU); at 72 hours, listed as Na Azide): No kill @ 100% | MBC test growth score ([1]; 10% preservative, 8 hour): + | MBC test growth score ([1]; 10% preservative, 24 hour): + | MBC test growth score ([1]; 10% preservative, 48 hour): + | MBC test growth score ([1]; 10% preservative, 72 hour): + | MBC test growth score ([1]; 10% preservative, 7 day): + | MBC test growth score ([1]; 10% preservative, 14 day): +/− | MBC test growth score ([1]; 20% preservative, 8 hour): + | MBC test growth score ([1]; 20% preservative, 24 hour): + | MBC test growth score ([1]; 20% preservative, 48 hour): + | MBC test growth score ([1]; 20% preservative, 72 hour): + | MBC test growth score ([1]; 20% preservative, 7 day): + | MBC test growth score ([1]; 20% preservative, 14 day): +/− | MBC test growth score ([1]; 30% preservative, 8 hour): + | MBC test growth score ([1]; 30% preservative, 24 hour): + | MBC test growth score ([1]; 30% preservative, 48 hour): + | MBC test growth score ([1]; 30% preservative, 72 hour): + | MBC test growth score ([1]; 30% preservative, 7 day): + | MBC test growth score ([1]; 30% preservative, 14 day): +/− | MBC test growth score ([1]; 40% preservative, 8 hour): + | MBC test growth score ([1]; 40% preservative, 24 hour): + | MBC test growth score ([1]; 40% preservative, 48 hour): + | MBC test growth score ([1]; 40% preservative, 72 hour): + | MBC test growth score ([1]; 40% preservative, 7 day): + | MBC test growth score ([1]; 40% preservative, 14 day): +/− | MBC test growth score ([1]; 50% preservative, 8 hour): + | MBC test growth score ([1]; 50% preservative, 24 hour): + | MBC test growth score ([1]; 50% preservative, 48 hour): + | MBC test growth score ([1]; 50% preservative, 72 hour): + | MBC test growth score ([1]; 50% preservative, 7 day): + | MBC test growth score ([1]; 50% preservative, 14 day): +/− | MBC test growth score ([1]; 60% preservative, 8 hour): + | MBC test growth score ([1]; 60% preservative, 24 hour): + | MBC test growth score ([1]; 60% preservative, 48 hour): + | MBC test growth score ([1]; 60% preservative, 72 hour): + | MBC test growth score ([1]; 60% preservative, 7 day): + | MBC test growth score ([1]; 60% preservative, 14 day): +/− | MBC test growth score ([1]; 70% preservative, 8 hour): + | MBC test growth score ([1]; 70% preservative, 24 hour): + | MBC test growth score ([1]; 70% preservative, 48 hour): + | MBC test growth score ([1]; 70% preservative, 72 hour): + | MBC test growth score ([1]; 70% preservative, 7 day): + | MBC test growth score ([1]; 70% preservative, 14 day): +/− | MBC test growth score ([1]; 80% preservative, 8 hour): + | MBC test growth score ([1]; 80% preservative, 24 hour): + | MBC test growth score ([1]; 80% preservative, 48 hour): + | MBC test growth score ([1]; 80% preservative, 72 hour): + | MBC test growth score ([1]; 80% preservative, 7 day): + | MBC test growth score ([1]; 80% preservative, 14 day): +/− | MBC test growth score ([1]; 90% preservative, 8 hour): + | MBC test growth score ([1]; 90% preservative, 24 hour): + | MBC test growth score ([1]; 90% preservative, 48 hour): + | MBC test growth score ([1]; 90% preservative, 72 hour): + | MBC test growth score ([1]; 90% preservative, 7 day): + | MBC test growth score ([1]; 90% preservative, 14 day): +/− | MBC test growth score ([1]; 100% preservative, 8 hour): + | MBC test growth score ([1]; 100% preservative, 24 hour): + | MBC test growth score ([1]; 100% preservative, 48 hour): + | MBC test growth score ([1]; 100% preservative, 72 hour): + | MBC test growth score ([1]; 100% preservative, 7 day): + | MBC test growth score ([1]; 100% preservative, 14 day): +/− | total kill at % preservative (MBC) ([1]; listed as Na Azide): No kill @ 100%
